Results as given in patent publication US12213959B2, “Use of 3-O-sulfamoyloxy-7β-methyl-d-homo-6-oxaestra-1,3,5(10),8(9)-tetraen-17a-one to treat breast cancer” (priority 2018, dated 2025).
Marks after values point to notes of the source that are not given here.

Columns and labels:
[1] = test system: breast cancer cells MCF-7; conditions: cited from earlier work
[2] = Body weight and tolerability during the antitumour study; conditions: for Average body weight of mice (M): 4.0 mg/kg daily i.g.; for Body weight: Tamoxifen-2, 4 mg/kg, end of observation
Experimental: The study medicament was administered i.g. using a metal atraumatic gavage (with the procedure corresponds to the oral route of administration in clinical settings). […] Ex tempore solutions of the medicament for administration were prepared in olive oil (refined olive oil supplemented with unrefined extra virgin olive oil available under Global Village “Clasico” trademark, lot L:183351116, expiry date 26.04.2020, BAIEO, Spain). The administered volume was 0.1 ml per 10 g of a mouse body weight (0.2 ml of a ready-to-use formulation for a mouse of 20 g). The medicament administration was started 24 hours after the randomization. Duration of the administration course was 27-28 days.
This dose corresponds to a human daily dose of 20 mg/kg.
The evaluation criteria included the clinical observation data, animals body weights, time of death (if applicable), tumor growth over time, pathomorphological examination data (verification of a neoplasm during autopsy, assessment of toxic effects by macroscopic presentation of changes in the internal organs).
The animals body weights were recorded before the first administration of the medicaments and then twice per week using a verified high-speed electronic laboratory balance Ohaus Scout Pro (USA) with a maximum load of 2000 g and a measurement pitch of 0.1 g.

[3] = test system: breast tumours in FBV/N female mice, transgenic for HER-2/neu; experiment: Antitumour activity on breast tumours of HER-2/neu transgenic mice; format: in vivo; conditions: for Relative change of the average total volume of tumours to that of Day −1 (M): Tamoxifen-1, 4.0 mg/kg daily i.g.; for Average total volume of tumours in mice (M) / Average volume of tumors existing at the beginning of the experiment (M) / TGI (average total tumour volume) / TGI (average tumor volume): Tamoxifen-1 group; for Average total volume of tumours in mice (M) / Average volume of tumors existing at the beginning of the experiment (M): 4.0 mg/kg daily i.g.; for TGI (average total tumour volume) / TGI (average tumor volume): 4.0 mg/kg
Experimental: The study was carried out on female FVB mice transgenic for HER-2/neu of the conventional category, the strain being obtained from the mouse bank Charles River Laboratories (Italy).
Duration of the administration course was 27-28 days.
The control groups were given the olive oil (placebo).
The macroscopically detectable tumor nodes were measured in the animals once per week during the weighing process.

[4] = test system: MCF-7 human cells culture (breast adenocarcinoma); experiment: Proliferative activity of MCF-7 cells; format: cell-based
Experimental: The study analysis was carried out on an passaged MCF-7 human cells culture culture (breast adenocarcinoma). Normal human dermal fibroblasts (HDF) of early passages were used as a negative control.
The cells were cultivated in Carrel vials in DMEM/F12 medium (Biolot) with 1.0% of antibiotic-free fetal bovine embryonic serum (Biolot) added in the 5% CO2 atmosphere, at 37° C.
The cells were seeded on Carrel vials at 50×10^4 cells per flask. To study the proliferative activity of the cells under conditions of sulfatase inhibition, 24 hours after seeding the culture medium […], and then these tumor cell lines were incubated for various periods of time (24 to 72 hrs). The inhibitor was dissolved in DMSO. […] To exclude the cytotoxic effect of DMSO, a control sample comprising DMSO without sulfatase inhibitor was prepared.
To exclude nonspecific detrimental effects of the compounds, normal human skin fibroblasts were used. Then the cells were detached with the versene-trypsin solution (Biolot), plated onto Carrel vials containing a fresh complete culture medium. The cells were counted when untreated control cells reached the maximum cell density per unit of surface area of a culture flask (monolayer), and their number was set as 100%. The proliferative activity of all of the studied cell cultures exposed to sulfatase inhibitors was determined in triplicate.

[5] = test system: uterine body; experiment: Hormonal effects on the uterine body (uterine weight); format: in vivo, mice; conditions: Tamoxifen-2, 4 mg/kg, end of observation
Experimental: The hormonal effects of the medicament on the uterine body was analyzed by comparing the uterine weight without uterine horns at the end of the observation period (Table 13).

[6] = in vivo; cited from earlier work

**Q.** For `C[C@H]1Oc2cc(OS(N)(=O)=O)ccc2C2=C1C1=CCC[C@H](OS(N)(=O)=O)[C@@]1(C)CC2` [3,17αβ-disulfamoyloxy-7β-methyl-D-homo-6-oxa-estra-1,3,5(10), 8,14-pentaen], which “growth of breast cancer cells MCF-7” value [1] is on record?
**A.** Its value is “inhibitor of the growth”.

**Q.** Which “Average body weight of mice (M)” value ([2]; Tamoxifen-1 group, Day 1) does the source give for `CC/C(=C(\c1ccccc1)c1ccc(OCCN(C)C)cc1)c1ccccc1` [Tamoxifen, reference compound] here?
**A.** The value was 27.7 g.

**Q.** What about the “Average body weight of mice (M)” value ([2]; Tamoxifen-1 group, Day 6) of the same molecule?
**A.** The value was 26.5 g.

**Q.** And the “Average body weight of mice (M)” value ([2]; Tamoxifen-1 group, Day 13)?
**A.** The value was 27.3 g.

**Q.** What about the “Average body weight of mice (M)” value ([2]; Tamoxifen-1 group, Day 20) of the same molecule?
**A.** The value was 27.5 g.

**Q.** And the “Average body weight of mice (M)” value ([2]; Tamoxifen-1 group, Day 27)?
**A.** The value was 28.2 g.

**Q.** And the Body weight ([2]; All mice)?
**A.** Its Body weight is 34.2 ± 1.4 g.

**Q.** And the Body weight ([2]; estrous cycle phase E)?
**A.** Its Body weight is 34.2 ± 1.4 g.

**Q.** What about the “Average body weight of mice (M)” value ([2]; Tamoxifen-2 group, Day 1) of the same molecule?
**A.** The value was 31.0 g.

**Q.** And the “Average body weight of mice (M)” value ([2]; Tamoxifen-2 group, Day 7)?
**A.** Its value is 32.0 g.

**Q.** What about the “Average body weight of mice (M)” value ([2]; Tamoxifen-2 group, Day 14) of the same molecule?
**A.** Its value is 32.9 g.

**Q.** What about the “Average body weight of mice (M)” value ([2]; Tamoxifen-2 group, Day 21) of the same molecule?
**A.** Its value is 32.8 g.

**Q.** What about the “Average body weight of mice (M)” value ([2]; Tamoxifen-2 group, Day 28) of the same molecule?
**A.** Its value is 34.2 g.

**Q.** And the “Relative change of the average total volume of tumours to that of Day −1 (M)” value (from here on “Relative change … (M)”) ([3]; Day 6)?
**A.** Its value is 40%.

**Q.** What about the “Relative change … (M)” value ([3]; Day 13) of the same molecule?
**A.** The value was 80** %.

**Q.** And the “Relative change … (M)” value ([3]; Day −1)?
**A.** Its value is 0%.

**Q.** What about the “Average total volume of tumours in mice (M)” value ([3]; Day 6) of the same molecule?
**A.** Its value is 1 0.76 cm^3.

**Q.** And the “Average volume of tumors existing at the beginning of the experiment (M)” value (“Average volume of tumors existing” below) ([3]; Day 6)?
**A.** Its value is 0.26 cm^3.

**Q.** And the “Average total volume of tumours in mice (M)” value ([3]; Day 13)?
**A.** The value was 0.88 cm^3.

**Q.** What about the “Average volume of tumors existing” value ([3]; Day 13) of the same molecule?
**A.** The value was 0.3 cm^3.

**Q.** What about the “Average volume of tumors existing” value ([3]; Day 20) of the same molecule?
**A.** Its value is 0.47 cm^3.

**Q.** What about the “Average volume of tumors existing” value ([3]; Day 27) of the same molecule?
**A.** The value was 0.58 cm^3.

**Q.** What about the “Average total volume of tumours in mice (M)” value ([3]; Day −1) of the same molecule?
**A.** The value was 0.66 cm^3.

**Q.** And the “Average volume of tumors existing” value ([3]; Day −1)?
**A.** The value was 0.23 cm^3.

**Q.** And the “TGI (average total tumour volume)” value ([3]; vs Control-2, Day 6)?
**A.** The value was −162%.

**Q.** What about the “TGI (average tumor volume)” value ([3]; vs Control-2, Day 6) of the same molecule?
**A.** Its value is −100%.

**Q.** What about the “TGI (average total tumour volume)” value ([3]; vs Control-2, Day 13) of the same molecule?
**A.** Its value is −35%.

**Q.** And the “TGI (average tumor volume)” value ([3]; vs Control-2, Day 13)?
**A.** The value was −7%.

**Q.** And the “TGI (average total tumour volume)” value ([3]; vs Control-2, Day 20)?
**A.** The value was −39%.

**Q.** What about the “TGI (average tumor volume)” value ([3]; vs Control-2, Day 20) of the same molecule?
**A.** Its value is −9%.

**Q.** What about the “TGI (average total tumour volume)” value ([3]; vs Control-2, Day 27) of the same molecule?
**A.** The value was −21%.

**Q.** And the “TGI (average tumor volume)” value ([3]; vs Control-2, Day 27 (end of observation))?
**A.** The value was 5%.

**Q.** What about the “TGI (average total tumour volume)” value ([3]; vs Control-2, Day −1) of the same molecule?
**A.** Its value is −247%.

**Q.** What about the “TGI (average tumor volume)” value ([3]; vs Control-2, Day −1) of the same molecule?
**A.** The value was −188%.

**Q.** And the “relative change in the total volume of tumours versus Control-3 group” value ([3]; Tamoxifen-2 group)?
**A.** The value was “exceeded the value across the Control-3 group”.

**Q.** What about the “average volume of tumours exceeded the control group by” value ([3]; Tamoxifen-2 group, end of the experiment) of the same molecule?
**A.** The value was 31%.

**Q.** What about the “inhibition of proliferation of MCF-7 tumour cells, compared with steroid of formula 2” value [4] of the same molecule?
**A.** Its value is “inhibited to the same extent”.

**Q.** What about the Uterine weight ([5]; All mice) of the same molecule?
**A.** The Uterine weight was 28 ± 1 MI.

**Q.** What about the Uterine weight ([5]; estrous cycle phase E) of the same molecule?
**A.** The Uterine weight was 28 ± 1 MI.

**Q.** Which uterotropic activity [6] does the source give for `C[C@]12CC[C@@H]3c4ccc(OS(N)(=O)=O)cc4CC[C@H]3[C@@H]1CCC2=O` [estrone sulfamate] here?
**A.** Its uterotropic activity is “strong uterotropic activity”.
